According to patent US20250163056A1, “NONMUSCLE MYOSIN II INHIBITORS” (The University of Florida Research Foundation, Inc., priority 2018, published 2025):

What was measured:
[1] = molecular target: Bovine cardiac myosin (Bos taurus (Bovine), UniProt Q9BE39); test: Cardiac muscle myosin II actin-activated ATPase assay (NADH-coupled); type: biochemical; design: key to Ratio CMMII:NMII Ki/EC50: NMII-sel: no Ki value for cardiac myosin II could be determined; the compounds had no detectable inhibitory properties versus the cardiac myosin II; settings: for Ratio CMMII:NMII Ki/EC50: cardiac myosin II Ki over nonmuscle myosin II EC50; for Ki: 300 nM cardiac myosin, 10 μM actin, 25° C., read-out: CMMII KI
Bovine cardiac myosin, sequence (Q9BE39 whole entry): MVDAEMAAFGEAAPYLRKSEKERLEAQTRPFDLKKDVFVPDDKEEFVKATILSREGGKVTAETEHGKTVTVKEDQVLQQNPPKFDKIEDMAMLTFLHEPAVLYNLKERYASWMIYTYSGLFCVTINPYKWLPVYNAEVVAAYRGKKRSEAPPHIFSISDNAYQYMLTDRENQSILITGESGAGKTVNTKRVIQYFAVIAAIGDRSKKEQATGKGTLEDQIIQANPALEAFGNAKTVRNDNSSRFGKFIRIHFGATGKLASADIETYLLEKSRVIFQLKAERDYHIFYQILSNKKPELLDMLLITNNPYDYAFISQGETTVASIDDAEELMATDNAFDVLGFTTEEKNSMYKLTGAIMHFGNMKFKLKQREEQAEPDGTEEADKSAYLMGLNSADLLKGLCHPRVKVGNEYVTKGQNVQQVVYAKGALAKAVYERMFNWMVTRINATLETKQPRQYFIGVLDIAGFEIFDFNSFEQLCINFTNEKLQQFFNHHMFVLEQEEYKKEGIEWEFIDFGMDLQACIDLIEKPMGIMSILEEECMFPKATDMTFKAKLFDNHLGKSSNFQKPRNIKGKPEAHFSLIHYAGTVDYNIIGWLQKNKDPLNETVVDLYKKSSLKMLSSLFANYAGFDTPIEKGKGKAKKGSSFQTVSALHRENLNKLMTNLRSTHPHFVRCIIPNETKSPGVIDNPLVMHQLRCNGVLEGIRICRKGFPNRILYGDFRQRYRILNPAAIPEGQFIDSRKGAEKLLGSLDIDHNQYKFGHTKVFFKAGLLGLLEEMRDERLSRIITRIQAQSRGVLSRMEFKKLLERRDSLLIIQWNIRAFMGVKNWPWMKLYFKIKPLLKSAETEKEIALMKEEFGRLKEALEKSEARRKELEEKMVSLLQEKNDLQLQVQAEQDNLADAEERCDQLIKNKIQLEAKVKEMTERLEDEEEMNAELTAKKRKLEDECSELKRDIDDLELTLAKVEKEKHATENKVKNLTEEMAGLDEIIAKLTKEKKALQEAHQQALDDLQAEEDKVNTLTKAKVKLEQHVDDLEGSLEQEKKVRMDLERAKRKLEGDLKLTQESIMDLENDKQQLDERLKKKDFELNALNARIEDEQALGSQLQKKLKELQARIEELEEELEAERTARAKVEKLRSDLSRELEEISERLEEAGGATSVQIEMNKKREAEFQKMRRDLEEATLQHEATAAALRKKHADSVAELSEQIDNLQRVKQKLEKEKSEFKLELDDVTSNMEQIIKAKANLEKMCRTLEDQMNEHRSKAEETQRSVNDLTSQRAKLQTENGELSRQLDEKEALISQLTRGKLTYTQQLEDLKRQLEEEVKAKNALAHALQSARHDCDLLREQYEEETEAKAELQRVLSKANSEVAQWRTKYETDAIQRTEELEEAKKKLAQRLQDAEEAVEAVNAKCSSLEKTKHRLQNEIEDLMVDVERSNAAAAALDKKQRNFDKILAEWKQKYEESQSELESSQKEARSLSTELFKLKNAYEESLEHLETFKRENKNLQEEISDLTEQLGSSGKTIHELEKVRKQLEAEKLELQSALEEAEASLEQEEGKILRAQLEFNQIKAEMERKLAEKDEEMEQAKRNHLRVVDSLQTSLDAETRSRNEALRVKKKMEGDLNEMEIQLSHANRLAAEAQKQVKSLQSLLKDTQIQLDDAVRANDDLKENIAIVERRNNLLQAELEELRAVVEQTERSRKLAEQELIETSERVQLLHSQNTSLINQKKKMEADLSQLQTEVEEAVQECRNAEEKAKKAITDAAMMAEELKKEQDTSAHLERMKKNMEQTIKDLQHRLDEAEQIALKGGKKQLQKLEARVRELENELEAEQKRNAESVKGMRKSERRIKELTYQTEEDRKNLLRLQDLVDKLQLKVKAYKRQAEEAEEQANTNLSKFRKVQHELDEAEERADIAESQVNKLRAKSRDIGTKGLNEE
Bovine cardiac myosin, sequence (P85100 whole entry partner): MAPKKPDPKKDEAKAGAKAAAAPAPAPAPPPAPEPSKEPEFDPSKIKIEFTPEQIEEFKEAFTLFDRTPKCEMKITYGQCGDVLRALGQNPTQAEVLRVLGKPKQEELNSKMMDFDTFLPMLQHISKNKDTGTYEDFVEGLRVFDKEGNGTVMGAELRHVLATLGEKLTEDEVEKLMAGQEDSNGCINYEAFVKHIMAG
Bovine cardiac myosin, sequence (Q3SZE5 whole entry partner): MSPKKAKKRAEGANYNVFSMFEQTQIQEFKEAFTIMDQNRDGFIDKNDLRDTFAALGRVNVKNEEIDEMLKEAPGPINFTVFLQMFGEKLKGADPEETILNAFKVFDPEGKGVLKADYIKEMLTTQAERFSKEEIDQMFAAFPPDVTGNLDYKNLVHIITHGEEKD
Outline: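 NADH-coupled (PK/LDH) assay at 25° C: 300 nM bovine cardiac myosin, 10 μM rabbit F-actin, 1 mM ATP, 1 mM PEP, 220 μM NADH, MOPS pH 7.0, 0.5% DMSO. NADH fluorescence was followed for 30 min; Ki values came from 16-point triplicate data (top 50 uM) fitted to a quadratic one-to-one binding model.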

[2] = molecular target: Rabbit skeletal myosin; test: Skeletal muscle myosin II actin-activated ATPase assay; type: biochemical; settings: 20 nM skeletal muscle myosin II; read-out: SKMMII KI
Outline: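 NADH-coupled (PK/LDH) actin-activated ATPase at 25 °C with 20 nM rabbit skeletal myosin II, 10 μM F-actin, 1 mM ATP, 1 mM PEP, 220 μM NADH in MOPS pH 7.0, MgCl2, EGTA, BSA, DTT, 0.5% DMSO. NADH fluorescence followed 30 min; inhibitory constants from 16-point triplicate curves (top 50 uM), quadratic one-to-one fit.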

[3] = Photostability, percentage remaining undegraded under illumination or in the dark; settings: for Photostability 4 hours: percentage remaining undegraded after 4 hours illumination; for Photostability 24 hours: percentage remaining undegraded after 24 hours illumination; for Photostability Dark (24 h): percentage remaining undegraded in the dark

Ratio CMMII:NMII Ki/EC50 [1] | Ki [2] [µM] | Photostability 4 hours [3] [%] | Photostability 24 hours [3] [%] | Photostability Dark (24 h) [3] [%] | Ki [1] [µM] | SMILES
NMII-sel | 1.3 | >99 | 97.1 | 98.2 | – | Cc1ccc2c(c1)C(=O)[C@]1(O)CCN(c3cnc(C#N)c(Cl)c3)C1=N2 [BPN-0028646]
3.4 | 0.26 | 52.5 | <1 | 98.4 | 4.4 | COc1ccc(N2CC[C@@]3(O)C(=O)c4cc(C)c(C)cc4N=C23)cn1 [BPN-0028648]
7.1 | 2.7 | 96.7 | 73.1 | 98.4 | 30 | Cc1cc2c(cc1C)C(=O)[C@]1(O)CCN(c3cnc(CO)c(Cl)c3)C1=N2 [BPN-0028649]
4.4 | 12 | 88.7 | 62.6 | 93.4 | 40 | CNc1cc(N2CC[C@@]3(O)C(=O)c4cc(C)c(C)cc4N=C23)ccn1 [BPN-0028650]
9.6 | 1.3 | 86.2 | 22.8 | 98.5 | 80 | Cc1ccc2c(c1)C(=O)[C@]1(O)CCN(c3ccc4ncc(N)cc4c3)C1=N2 [BPN-0028652]
8.4 | 1.7 | 55.3 | 11.2 | 98.0 | 16 | Cc1cc2c(cc1C)C(=O)[C@]1(O)CCN(c3cnc(C)c(C)c3)C1=N2 [BPN-0028694]
7.5 | 1.9 | 88.4 | 25.4 | 97.3 | 60 | Cc1cc(C)c2c(c1)N=C1N(c3ccc4ncccc4c3)CC[C@@]1(O)C2=O [BPN-0028697]
7.7 | 2.2 | 37.6 | 7.4 | >99 | 40 | Cc1cc2c(cc1C)C(=O)[C@]1(O)CCN(c3cnc(C)c(C)c3)C1=N2 [BPN-0028731]
3.1 | 6.8 | 82.1 | 14.8 | 96.6 | 27 | Cc1cc2c(cc1C)C(=O)[C@]1(O)CCN(c3cnc(CO)c(C)c3)C1=N2 [BPN-0028733]
5.0 | 2.9 | 76 | <1 | 96.3 | 15 | Cc1cc2c(cc1C)C(=O)[C@]1(O)CCN(c3cnc4c(c3)NCCO4)C1=N2 [BPN-0028734]
6.9 | 1.5 | 64 | 2 | 95.3 | 90 | Cc1cc2c(cc1C)C(=O)[C@]1(O)CCN(c3ccc4ncc(CO)cc4c3)C1=N2 [BPN-0028736]
4.1 | 40 | 90.9 | 55.3 | 93.3 | 210 | Cc1cc2c(cc1C)C(=O)[C@]1(O)CCN(c3ccc4c(c3)COCCN4)C1=N2 [BPN-0028758]
4.3 | 0.94 | 87.9 | 83 | 87.6 | 16 | Cc1cc2c(cc1C)C(=O)[C@]1(O)CCN(c3cnc(C#N)c(C)c3)C1=N2 [BPN-0028760]
3.8 | 1 | 92.7 | 64 | 95.3 | 2.4 | Cc1cc2c(cc1C)C(=O)[C@]1(O)CCN(c3ccc4c(c3)NCCO4)C1=N2 [BPN-0028790]
NMII-sel | 3 | 80.9 | 62.7 | 94.2 | – | COc1ncc(N2CC[C@@]3(O)C(=O)c4cc(C)c(C)cc4N=C23)cc1Cl [BPN-0028820]
12.5 | 0.77 | 89.8 | 29.1 | 98.5 | 12 | Cc1cc2c(cc1C)C(=O)[C@]1(O)CCN(c3cnc4c(c3)OCCN4)C1=N2 [BPN-0028821]

Ratio CMMII:NMII Ki/EC50 [1] | Ki [2] [µM] | Photostability 4 hours [3] [%] | Photostability 24 hours [3] [%] | Photostability Dark (24 h) [3] [%] | Ki [1] [µM] | SMILES
NMII-sel | 2.8 | 98.8 | 94.7 | 99 | – | Cc1ccc2cc(N3CC[C@@]4(O)C(=O)c5sc(C)cc5N=C34)ccc2n1 [BPN-0028863]
NMII-sel | 12 | 97.4 | 88.4 | 98.4 | – | CCc1cc(N2CC[C@@]3(O)C(=O)c4cc(C)c(C)cc4N=C23)ccn1 [BPN-0028864]
NMII-sel | 400 | 77.8 | 2.9 | 97.8 | – | Cc1cc2c(cc1C)C(=O)[C@]1(O)CCN(c3ccc4ncc(CN(C)C)cc4c3)C1=N2 [BPN-0028866]
NMII-sel | 1.3 | 69.9 | 1 | 98.7 | – | CCc1ccc2cc(N3CC[C@@]4(O)C(=O)c5cc(C)c(C)cc5N=C34)ccc2n1 [BPN-0028867]
31.6 | 0.23 | 46.7 | 43.3 | 98.9 | 24 | Cc1cc2c(cc1C)C(=O)[C@]1(O)CCN(c3ccc4nc(C)c(C)cc4c3)C1=N2 [BPN-0028868]
33.3 | 110 | 82.8 | 5.4 | 98.4 | 300 | Cc1cc2c(cc1C)C(=O)[C@]1(O)CCN(c3ccc4nc(CN(C)C)ccc4c3)C1=N2 [BPN-0028897]
31.7 | 1.9 | 93.4 | 58.1 | 96.4 | 95 | Cc1ccc2cc(N3CC[C@@]4(O)C(=O)c5cc(C)sc5N=C34)ccc2n1 [BPN-0028898]
NMII-sel | 3.8 | 70.8 | 29.7 | 97.8 | – | Cc1cc2c(cc1C)C(=O)[C@]1(O)CCN(c3ccc4nc(N)ccc4c3)C1=N2 [BPN-0028899]
5.5 | 0.64 | 54.2 | 7.8 | >99 | 11 | CCc1nc2cc(N3CC[C@@]4(O)C(=O)c5cc(C)c(C)cc5N=C34)ccc2s1 [BPN-0028918]
NMII-sel | 1.4 | 48.4 | <1 | 98.5 | – | Cc1cc2c(cc1C)C(=O)[C@]1(O)CCN(c3ccc4sc(C(C)C)nc4c3)C1=N2 [BPN-0028919]
NMII-sel | 3.9 | 36.6 | 2.5 | 98.4 | – | Cc1cc2c(cc1C)C(=O)[C@]1(O)CCN(c3cnc4c(c3)CCCC4)C1=N2 [BPN-0028920]
11.2 | 1 | 2.8 | 3.1 | 97.2 | 8.4 | Cc1cc2c(cc1C)C(=O)[C@]1(O)CCN(c3ccc4c(c3)OCCO4)C1=N2 [BPN-0028921]
8.8 | 0.77 | 86.1 | 27.7 | 94.8 | 9.7 | Cc1cc2c(cc1C)C(=O)[C@]1(O)CCN(c3ccc4c(c3)NCCS4)C1=N2 [BPN-0028922]
8.6 | 6 | 77.5 | 1 | 98.1 | 30 | Cc1cc2c(cc1C)C(=O)[C@]1(O)CCN(c3ccc4c(c3)CCCC4)C1=N2 [BPN-0028923]
11.8 | 2.6 | 44.7 | <1 | 97.7 | 20 | Cc1cc2c(cc1C)C(=O)[C@]1(O)CCN(c3ccc4c(c3)OCCC4)C1=N2 [BPN-0028924]
7.3 | 0.7 | 85.9 | 24.7 | 93.7 | 5.8 | Cc1cc2c(cc1C)C(=O)[C@]1(O)CCN(c3ccc4c(c3)NCCC4)C1=N2 [BPN-0028925]
